This passage reports IC50 results from patent publication US20240018115A1, “ALLOSTERIC CHROMENONE INHIBITORS OF PHOSPHOINOSITIDE 3-KINASE (PI3K) FOR THE TREATMENT OF DISEASE” (Petra Pharma Corporation, priority 2022, published 2024).

For the test, the target named is T1, PI3K-Alpha kinase H1047R mutant (Homo sapiens, UniProt P42336, H1047R).
T1 construct: host or cells: MDA-MB-453
Briefly: PI3K-Alpha Kinase (PIK3CA) Activity, H1047R Mutant In Vitro Cell Based Assay (MDA-MB-453 cells, AlphaLisa SureFire Ultra). Conditions: 0% FBS, 3 hours treatment, relative IC50. Here is the method: PI3K-Alpha Kinase (PIK3CA) Activity, H1047R Mutant In Vitro Cell Based Assay and Determining IC50 Values for Inhibitors
The MDA-MB-453 (ATCC-HTB-131) cell line was obtained from the American Type Culture Collection (Manassas, VA). Cells were maintained in Dulbecco's Modified Eagle Media (DMEM, Gibco 11965-092) supplemented with 10% Fetal Bovine Serum, heat inactivated (FBS HI, Gibco 10082-147), 1× non-essential amino acids (NEAA, Gibco 11140-050), and 1 mM sodium pyruvate (Gibco 11360-070). Cultures were maintained in a humidified incubator at 37° C. under 5% CO2/95% air.
For compound testing in 0% FBS, MDA-MB-453 cells were seeded at a density of 1.5×10^4 cells per well in white 384-well plates in 20 μl of Minimum Essential Media (MEM) assay media with 1×NEAA, 1 mM sodium pyruvate, and 1 μg/mL human insulin (Sigma I9278). Compounds dissolved in 10 mM stock solutions in DMSO were serially diluted 1:3 in DMSO to generate a 10-point dilution series and plated using an acoustic liquid handler system (Echo 550 Series Liquid Handler, Labcyte). A 5× intermediate compound dilution plate in MEM with 1×NEAA and 1 mM sodium pyruvate (150 μM starting compound concentration in 1.5% DMSO) was then prepared. Five μl of the intermediate serially diluted compounds were added to the cell plate to final concentrations ranging from […] in 0.3% DMSO. 0.3% DMSO alone was used to establish the maximum (MAX) signal and GDC-0032 at a final concentration of 1 μM was used as a reference compound for the minimum (MIN) signal. After 3 hours treatment, the medium was removed, and the cells lysed in 10 μL of 1× SureFire Lysis buffer with shaking for 10 minutes at room temperature. The Acceptor Mix (Reaction Buffer 1+Reaction Buffer 2+Activation Buffer+SureFire Ultra Acceptor Beads) was prepared by diluting Activation buffer 25-fold in combined Reaction Buffer 1 and Reaction Buffer 2. The Acceptor beads were diluted 50-fold in the combined Reaction Buffers. Five μL of Acceptor Mix was added to each well, the plate was sealed and covered with foil and incubated for 1 hour at room temperature. The Donor Mix (dilution buffer+SureFire Ultra Donor Beads) was prepared by diluting Donor Beads 50-fold in dilution buffer. Five μL of the Donor Mix was added to each well and the plate sealed and covered with foil and incubated for 1 hour at room temperature in the dark. The plates were read on a Neo2 plate reader instrument from Biotek using standard AlphaLisa settings. Compounds were tested in duplicate and the average % inhibition at each compound concentration was used to generate a single dose response curve. The data were processed using the Genedata-Screener tool. Relative IC50 values were determined using luminescence units by calculating percent inhibition with respect to the in-plate “MIN” (GDC-0032 reference control) and “MAX” (DMSO) controls. The data was analyzed using a 4-parameter nonlinear logistic equation (four-parameter logistic concentration-response curve):
Y=bottom+[(top−bottom)/1+(X/IC50)slope]
where Y=% inhibition, X=concentration of inhibitor, bottom=minimum value of y attained by curve-fit, top=maximum value of y attained by curve-fit and slope=steepness of curve at the IC50.
% Inhibition=[(signal at X−median Min)/(median Max−median Min)]×100
IC50: concentration of compound that reduces a given response (ligand binding, enzyme response) by 50%. Relative IC50: concentration giving half the compound's maximum response.
(In general: Bead proximity is the source of the signal in Alpha formats.)

T1 sequence (P42336 whole entry H1047R): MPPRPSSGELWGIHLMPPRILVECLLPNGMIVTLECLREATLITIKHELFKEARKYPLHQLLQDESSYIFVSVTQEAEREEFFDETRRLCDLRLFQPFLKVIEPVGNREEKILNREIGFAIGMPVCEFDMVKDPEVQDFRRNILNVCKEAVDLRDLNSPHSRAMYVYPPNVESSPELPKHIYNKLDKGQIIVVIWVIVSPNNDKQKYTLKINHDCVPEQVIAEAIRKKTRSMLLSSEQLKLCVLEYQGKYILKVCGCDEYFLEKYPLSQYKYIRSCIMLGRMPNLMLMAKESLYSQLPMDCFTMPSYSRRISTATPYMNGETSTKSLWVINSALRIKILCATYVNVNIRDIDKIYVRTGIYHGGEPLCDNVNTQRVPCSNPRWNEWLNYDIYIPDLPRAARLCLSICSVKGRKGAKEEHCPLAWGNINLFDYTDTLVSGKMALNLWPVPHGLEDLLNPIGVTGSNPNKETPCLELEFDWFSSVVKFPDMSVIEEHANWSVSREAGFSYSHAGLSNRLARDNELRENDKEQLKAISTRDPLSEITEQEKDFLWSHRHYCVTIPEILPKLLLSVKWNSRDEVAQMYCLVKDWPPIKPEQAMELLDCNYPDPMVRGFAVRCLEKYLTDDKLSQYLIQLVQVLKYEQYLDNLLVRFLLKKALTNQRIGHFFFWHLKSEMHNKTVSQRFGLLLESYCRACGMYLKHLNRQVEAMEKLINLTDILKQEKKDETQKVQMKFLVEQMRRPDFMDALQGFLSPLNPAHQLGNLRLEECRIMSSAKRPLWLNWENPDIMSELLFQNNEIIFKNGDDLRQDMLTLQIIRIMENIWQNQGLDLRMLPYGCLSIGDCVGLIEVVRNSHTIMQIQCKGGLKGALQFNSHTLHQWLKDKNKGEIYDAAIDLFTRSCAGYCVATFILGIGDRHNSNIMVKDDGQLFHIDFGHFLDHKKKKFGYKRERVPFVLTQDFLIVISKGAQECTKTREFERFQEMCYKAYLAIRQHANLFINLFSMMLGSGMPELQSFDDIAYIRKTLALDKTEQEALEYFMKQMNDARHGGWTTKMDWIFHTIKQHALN
T1 sequence (P27986 whole entry partner): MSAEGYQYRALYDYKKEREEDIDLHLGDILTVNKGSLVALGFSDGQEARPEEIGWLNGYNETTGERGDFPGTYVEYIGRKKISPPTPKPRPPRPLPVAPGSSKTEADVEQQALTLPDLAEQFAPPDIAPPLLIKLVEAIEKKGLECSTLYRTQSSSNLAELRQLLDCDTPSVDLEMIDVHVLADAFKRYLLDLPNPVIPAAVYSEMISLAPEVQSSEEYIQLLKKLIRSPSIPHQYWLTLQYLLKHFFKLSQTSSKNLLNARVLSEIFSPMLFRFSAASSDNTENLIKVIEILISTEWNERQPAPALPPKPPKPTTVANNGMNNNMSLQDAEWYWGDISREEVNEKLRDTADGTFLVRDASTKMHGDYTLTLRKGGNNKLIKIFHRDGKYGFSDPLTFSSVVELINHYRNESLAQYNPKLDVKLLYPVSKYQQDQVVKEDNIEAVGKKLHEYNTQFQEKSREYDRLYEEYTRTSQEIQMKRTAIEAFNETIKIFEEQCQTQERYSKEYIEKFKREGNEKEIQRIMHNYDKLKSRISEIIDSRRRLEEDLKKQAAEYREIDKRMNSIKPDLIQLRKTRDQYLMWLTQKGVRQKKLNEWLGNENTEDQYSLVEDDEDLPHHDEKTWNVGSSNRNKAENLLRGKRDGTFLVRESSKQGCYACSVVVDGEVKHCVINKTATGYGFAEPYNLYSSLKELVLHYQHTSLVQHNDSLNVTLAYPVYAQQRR

In general, IC50 refers to the concentration that inhibits the measured activity by half. `Cc1cc([C@@H](C)Nc2ccc(Cl)nc2S(N)(=O)=O)c2oc(-c3ccc(=O)n(C(C)C)c3)c(C)c(=O)c2c1` [Example 133C] returned an IC50 of less than 500 nM.

Compound `CONS(=O)(=O)c1ccccc1N[C@H](C)c1cc(C)cc2c(=O)c(C)c(-c3ccccc3)oc12` [Example 129C, 2-[[(1R)-1-(3,6-Dimethyl-4-oxo-2-phenyl-chromen-8-yl)ethyl]amino]-N-methoxy-benzenesulfonamide] gave an IC50 of less than 500 nM.

Compound `Cc1cc([C@@H](C)Nc2ccc(Cl)cc2)c2oc(-c3ccccc3)c(C)c(=O)c2c1` [Example 12B, 8-[(1R)-1-(4-Chloroanilino)ethyl]-3,6-dimethyl-2-phenyl-chromen-4-one] returned an IC50 of less than 1000 nM.

`Cc1cc([C@@H](C)Nc2ccccc2-c2cncs2)c2oc(-c3cccnc3)c(C)c(=O)c2c1` [Example 72A, 3,6-Dimethyl-2-(3-pyridyl)-8-[(1R)-1-(2-thiazol-5-ylanilino)-ethyl]chromen-4-one]: the IC50 is less than 500 nM.

In turn, `Cc1cc([C@@H](C)Nc2ccccc2CO)c2oc(-c3cccnc3)c(C)c(=O)c2c1` [Example 224C, 8-[(1R)-1-[2-(Hydroxymethyl)anilino]ethyl]-3,6-dimethyl-2-(3-pyridyl)chromen-4-one] had an IC50 of less than 500 nM.

In the case of `Cc1cc([C@@H](C)Nc2cccnc2-c2ncon2)c2oc(-c3ccccc3)c(C)c(=O)c2c1` [Example 53C, 3,6-Dimethyl-8-[(1R)-1-[[2-(1,2,4-oxadiazol-3-yl)-3-pyridyl]amino]ethyl]-2-phenyl-chromen-4-one], the IC50 was less than 500 nM.

Consider `Cc1cc([C@@H](C)Nc2ccc(Cl)nc2C)c2oc(-c3ccc4cn[nH]c4c3)c(C)c(=O)c2c1` [Example 78B, 8-[(1R)-1-[(6-Chloro-2-methyl-3-pyridyl)amino]ethyl]-2-(1H-indazol-6-yl)-3,6-dimethyl-chromen-4-one], for which the IC50 is less than 500 nM.

`CNC(=O)c1ccccc1N[C@H](C)c1cc(C)cc2c(=O)c(C)c(-c3ccc4nn(C)cc4c3)oc12` [Example 84A] registered an IC50 of less than 500 nM.

Compound `Cc1cc(C(C)Nc2ccccc2S(N)(=O)=O)c2oc(-c3ccccc3)c(C)c(=O)c2c1` (stereo not shown) [Example 32A, 2-[1-(3,6-Dimethyl-4-oxo-2-phenyl-chromen-8-yl)ethylamino]benzenesulfonamide] yielded an IC50 of less than 500 nM.

`Cc1cc([C@@H](C)Nc2ccccc2-c2ccns2)c2oc(-c3cccnc3)c(C)c(=O)c2c1` [Example 74A, 8-[(1R)-1-(2-Isothiazol-5-ylanilino)ethyl]-3,6-dimethyl-2-(3-pyridyl)-chromen-4-one]: the IC50 is less than 500 nM.

Consider `CNC(=O)c1ccccc1N[C@H](C)c1cc(C)cc2c(=O)c(C)c(-c3cccnc3)oc12` [Example 83A, 2-[[(1R)-1-[3,6-Dimethyl-4-oxo-2-(3-pyridyl)chromen-8-yl]ethyl]amino]-N-methyl-benzamide], for which the IC50 is less than 500 nM.

`Cc1cc([C@@H](C)Nc2cccnc2C(=O)N[C@@H]2CCOC2)c2oc(-c3ccccc3)c(C)c(=O)c2c1` [Example 178A, 3-[[(1R)-1-(3,6-Dimethyl-4-oxo-2-phenyl-chromen-8-yl)ethyl]amino]-N-[(3R)-tetrahydrofuran-3-yl]pyridine-2-carboxamide] showed an IC50 of less than 500 nM.

Regarding `Cc1cc([C@@H](C)Nc2cccnc2C)c2oc(-c3cccnc3)c(C)c(=O)c2c1` [Example 9B, 3,6-Dimethyl-8-[(1R)-1-[(2-methyl-3-pyridyl)amino]ethyl]-2-(3-pyridyl)chromen-4-one], the IC50 is less than 500 nM.

With `Cc1cc([C@@H](C)Nc2ccc(Cl)nc2C)c2oc(-c3cccnc3)c(C)c(=O)c2c1` [Example 10B, 8-[(1R)-1-[(6-Chloro-2-methyl-3-pyridyl)amino]ethyl]-3,6-dimethyl-2-(3-pyridyl)chromen-4-one], the IC50 is less than 500 nM.

`Cc1cc([C@@H](C)Nc2ccccc2-c2cncn2C)c2oc(-c3ccccc3)c(C)c(=O)c2c1` [Example 68A, 3,6-Dimethyl-8-[(1R)-1-[2-(3-methylimidazol-4-yl)anilino]ethyl]-2-phenyl-chromen-4-one] came in with an IC50 of less than 500 nM.

The compound `Cc1cc([C@@H](C)Nc2ccccc2-c2ncco2)c2oc(-c3ccccc3)c(C)c(=O)c2c1` [Example 65A, 3,6-Dimethyl-8-[(1R)-1-(2-oxazol-2-ylanilino)ethyl]-2-phenyl-chromen-4-one] had an IC50 of less than 1000 nM.

For `Cc1cc([C@@H](C)Nc2ccccc2C(=O)C=S(C)(C)=O)c2oc(-c3ccccc3)c(C)c(=O)c2c1` [Example 54C, 8-[(1R)-1-[2-[2-[Dimethyl(oxo)-lambda6-sulfanylidene]acetyl]anilino]ethyl]-3,6-dimethyl-2-phenyl-chromen-4-one], the IC50 was less than 500 nM.

Turning to `Cc1cc([C@@H](C)Nc2ccc(Cl)nc2S(C)(=O)=O)c2oc(-c3ccccc3)c(C)c(=O)c2c1` [Example 80B, 8-[(1R)-1-[(6-Chloro-2-methylsulfonyl-3-pyridyl)amino]ethyl]-3,6-dimethyl-2-phenyl-chromen-4-one], the IC50 was less than 500 nM.

`Cc1cc(C(C)Nc2cccc3c2C(=O)C(=O)N3)c2oc(-c3ccccc3)c(C)c(=O)c2c1` (single isomer, unassigned) [Example 27A]: the IC50 is less than 1000 nM.

For `Cc1cc([C@@H](C)Nc2cccnc2-c2n[nH]c(=O)[nH]2)c2oc(-c3ccccc3)c(C)c(=O)c2c1` [Example 63A, 3-[3-[[(1R)-1-(3,6-Dimethyl-4-oxo-2-phenyl-chromen-8-yl)ethyl]amino]-2-pyridyl]-1,4-dihydro-1,2,4-triazol-5-one], the IC50 is less than 500 nM.

For the compound `Cc1cc([C@@H](C)Nc2ccc(Cl)nc2S(N)(=O)=O)c2oc(-c3ccccc3)c(-c3cnoc3)c(=O)c2c1` [Example 132C], the IC50 is less than 500 nM.

For `Cc1cc(C(C)Nc2ccc(Cl)nc2-c2ccc(=O)[nH]c2)c2oc(-c3cccnc3)c(C)c(=O)c2c1` (single isomer, unassigned) [Example 222C, 5-[6-Chloro-3-[1-[3,6-dimethyl-4-oxo-2-(3-pyridyl)chromen-8-yl]ethylamino]-2-pyridyl]-1H-pyridin-2-one], the IC50 was less than 500 nM.

Turning to `CNC(=O)c1ccccc1N[C@H](C)c1cc(C)cc2c(=O)c(C)c(-c3cccc(F)c3)oc12` [Example 86A, 2-[[(1R)-1-[2-(3-Fluorophenyl)-3,6-dimethyl-4-oxo-chromen-8-yl]ethyl]amino]-N-methyl-benzamide], the IC50 was less than 500 nM.

`Cc1cc([C@@H](C)Nc2ccccc2-c2nncn2C)c2oc(-c3ccccc3)c(C)c(=O)c2c1` [Example 66A, 3,6-Dimethyl-8-[(1R)-1-[2-(4-methyl-1,2,4-triazol-3-yl)anilino]ethyl]-2-phenyl-chromen-4-one] had an IC50 of less than 500 nM.

On to `Cc1cc(C(C)Nc2ccccc2-n2cnnn2)c2oc(-c3ccccc3)c(C)c(=O)c2c1` (single isomer, unassigned) [Example 24A, 3,6-Dimethyl-2-phenyl-8-[1-[2-(tetrazol-1-yl)anilino]ethyl]chromen-4-one], for which the IC50 was less than 500 nM.

For `Cc1cc(C(C)Nc2ccc(Cl)nc2-c2ccccc2F)c2oc(-c3cccnc3)c(C)c(=O)c2c1` (single isomer, unassigned) [Example 219C, 8-[1-[[6-Chloro-2-(2-fluorophenyl)-3-pyridyl]amino]ethyl]-3,6-dimethyl-2-(3-pyridyl)chromen-4-one], the IC50 is less than 500 nM.

`Cc1cc([C@@H](C)Nc2ccc(Cl)nc2C(=O)NS(N)(=O)=O)c2oc(-c3ccccc3)c(C)c(=O)c2c1` [Example 130C, 6-Chloro-3-[[(1R)-1-(3,6-dimethyl-4-oxo-2-phenyl-chromen-8-yl)ethyl]amino]-N-sulfamoyl-pyridine-2-carboxamide]: the IC50 is less than 500 nM.

Take `Cc1cc([C@@H](C)Nc2ccc(Cl)nc2)c2oc(-c3ccc(CN(C)C)cc3)c(C)c(=O)c2c1` [Example 22B, 8-[(1R)-1-[(6-Chloro-3-pyridyl)amino]ethyl]-2-[4-[(dimethylamino)methy1]phenyl]-3,6-dimethyl-chromen-4-one]: the IC50 was less than 500 nM.
